Experimental data published in US20040072205A1, “Methods for treating neuronal disorders” (priority 2002, published 2004).

Columns and labels:
[1] = tested on: hSOD1^G93A transgenic ALS mice; experiment: Minocycline treatment of ALS mice: Rotarod onset and mortality; type: in vivo, mouse
Protocol: We tested the effectiveness of minocycline on a mouse model of ALS and investigated its mechanism of neuroprotection. […] We evaluated the effect of minocycline on one of the ALS mouse models expressing the mutant human SOD1^G93A transgene. Minocycline (10 mg/kg body weight/day) was injected beginning at five weeks of age. Mutant hSOD1^G93A transgenic mice were evaluated weekly on a Rotarod to follow disease progression.
Minocycline administration started at six weeks of age at a slightly higher dose (11 mg/kg body weight/day).
ALS mice (Jackson Laboratories, Bar Harbor, Me.) were injected intraperitoneally daily with saline or minocycline (Sigma, St. Louis, Mo.). Strength and coordination were evaluated weekly by Rotarod (Columbus Instruments, Columbus, Ohio). Disease onset was defined as the first day a mouse could not remain on the Rotarod for 10 min at 15 rpm. Mortality was scored as age of death or age when the mouse was unable to right itself within 30 seconds (Li et al., supra).

human patients with ALS = conditions: cited from earlier work

Row | SMILES | Onset of impaired motor performance (Rotarod), age ([1]; 10 mg/kg body weight/day i.p. from five weeks of age, saline 90.3±2.2 days, P<0.001) | Survival, age ([1]; 10 mg/kg body weight/day i.p. from five weeks of age, saline 125.6±3.4 days, P<0.01) | Mortality, age ([1]; modified protocol: 11 mg/kg body weight/day from six weeks of age, n=8/group, saline 126.3±2.7 days, P<0.05) | side effects (human patients with ALS)
1 | CN(C)c1ccc(O)c2c1C[C@H]1C[C@H]3[C@H](N(C)C)C(O)=C(C(N)=O)C(=O)[C@@]3(O)C(O)=C1C2=O [Minocycline] | 109.0 ± 1.5 days | 136.8 ± 1.2 days | 139.0 ± 2.1 days | –
2 | Nc1nc2ccc(OC(F)(F)F)cc2s1 [riluzole] | – | – | – | causes liver damage
